Results: patent publication US20060034856A1, “Epha2 antigen t epitopes” (priority 2002, published 2006)
Ends that are not written are not given here.

B1: p546 peptide of EphA2 (peptide)
peptide: VLLLVLAGV
notes: Synthetic 9-mer fragment of the human EphA2 antigen
B2: p61Y variant peptide (peptide)
peptide: YMPIYMYSV
notes: Variant of p61 in which the N-terminal aspartic acid is replaced by tyrosine
B3: p550 peptide of EphA2 (peptide)
peptide: VLAGVGFFI
notes: as for B1
B4: p58 peptide of EphA2 (peptide)
peptide: IMNDMPIYM
notes: Synthetic 9-mer fragment of the human EphA2 antigen (SYNT:EM), purity >85%
B5: p883 peptide of EphA2 (peptide)
peptide: TLADFDPRV
notes: as for B1

Legend:
HLA-A*0201 [1] = biological target: T1, HLA-A*0201 (Homo sapiens, UniProt P04439, D140Y/D185E/D98H/E176V/E277Q/G131W/G231S/I119V/I121R/I166T/I218V/L300P/L318F/N151K/N90K/P208A/P217A/Q86G/Q94H/R138H/R169H/T345S); conditions: ratio of peptide to reference peptide (HIVpol 589) concentration inducing 20% of fluorescence of 100 μM reference; T2 cells; lower RA = stronger binding; mean of at least three experiments
Description: (§1) The immunogenicity of these peptides was evaluated by measuring their affinity for HLA-A*0201. This is defined by two parameters: the relative affinity (RA) which reflects the ability of the peptides to bind to HLA-A*0201, and the rate of dissociation of the HLA-A*0201/peptide complexes (DC50), which reflects their stability.
Human T2 cells (Firat et al., Eur. J. Immunol., 29, 3112, 1999) (3×10^5 cells/ml), which are deficient in TAP transporters, are incubated at 37° C. for 16 hours with various concentrations (100 μM, 10 μM, 1 μM, 0.1 μM) of each test peptide, in serum-free RPMI 1640 medium supplemented with 100 ng/ml of human β2-microglobulin. Next, they are washed twice and labeled with the monoclonal antibody BB7.2 (Parham et al., Hum. Immunol., 3, 4, 277-299, 1981) which is specific for the HLA-A*0201 molecule, and then with a goat anti-mouse Ig antibody coupled to fluorescein isothiocyanate (FITC).
These cells are then analyzed by flow cytometry. […] The relative affinity (RA) is defined as the ratio of the concentration of each peptide that induces 20% of the fluorescence obtained with 100 μM of the reference peptide, to the concentration of the reference peptide that induces 20% of the fluorescence obtained with 100 μM of said reference peptide. […] The mean RA for each peptide is determined from at least three independent experiments.

HLA-A*0201 [2] = biological target: T1, HLA-A*0201; test: Stability of HLA-A*0201/peptide complexes (DC50) on T2 cells; assay type: binding; set-up: endogenous in cells; host or cells: human T2 cells (TAP-deficient); conditions: time for loss of 50% of HLA-A*0201/peptide complexes stabilized at t=0, 100 μM peptide, 37° C.
Description: as §1, with “stability. The high-affinity peptides (RA<5 and DC50>2 hrs) are potentially immunogenic, unlike the low-affinity peptides (RA>5 and DC50<2 hrs).” for “stability.”
T2 cells (10^6/ml) are incubated overnight at 37° C. with 100 μM of each test peptide, in serum-free RPMI 1640 medium supplemented with 100 ng/ml of human β2-microglobulin. Next, they are washed four times in order to remove the free peptides, incubated with BREFELDIN A (Sigma; 10 μg/ml) for one hour in order to prevent the expression at their surface of newly synthesized HLA-A*0201 molecules, washed, and incubated at 37° C. for 0, 2, 4, 6 or 8 hours in the presence of BREFELDIN A (0.5 μg/ml). For each incubation time, the cells are then labeled, as indicated above, with the BB7.2 antibody and analyzed by flow cytometry in order to evaluate the amount of peptide/HLA-A*0201 complex present at their surface. This amount is evaluated by means of the formula: (mean fluorescence of the T2 cells preincubated with the peptide−mean fluorescence of the T2 cells treated under similar conditions in the absence of peptide). The DC50 (dissociation complex: DC) is defined as being the time (in hours) required for the loss of 50% of the HLA-A*0201/peptide complexes which are stabilized at t=0.

[3] = biological target: T2, HLA-A*0201 molecule on human T2 cells (human); test: T2 cell HLA-A*0201 stabilisation, flow cytometry with BB7.2; peptide concentration giving 20% of reference fluorescence, relative to HIVpol 589
T2 construct: MHC class I molecule on T2 cells

| Molecule | RA (relative affinity) (HLA-A*0201 [1]) | DC50 (HLA-A*0201 [2]) | RA (relative affinity) [3] |
| --- | --- | --- | --- |
| DMPIYMYSV [p61] | >10 |  |  |
| IMNDMPIYM [p58, IMNDMPIYM] | 1 | 4 h |  |
| TLADFDPRV [p883, TLADFDPRV] |  | 2 to 4 h |  |
| VLAGVGFFI [p550, VLAGVGFFI] | 1 | 4 to 6 h |  |
| VLLLVLAGV [p546, VLLLVLAGV] | 1.4 | 4 to 6 h |  |
| YMPIYMYSV [p61Y, YMPIYMYSV] | 1.5 |  |  |
| B1 |  |  | 1.4 ratio to reference peptide |
| B2 |  |  | 1.5 ratio to reference peptide |
| B3 |  |  | 1 ratio to reference peptide |
| B4 |  |  | 1 ratio to reference peptide |
| B5 |  |  | 2.2 ratio to reference peptide |
